Assay results reported in patent US20220306647A1, “NOVEL INDOLE-2-CARBOXAMIDES ACTIVE AGAINST THE HEPATITUS B VIRUS (HBV)” (AICURIS GMBH & CO. KG, priority 2019, published 2022).

What follows are compounds tested against T1, HBV core protein (C-terminal truncated core protein, 149 amino acids of the N-terminal assembly domain, BODIPY-FL labelled) (UniProt P03146) (assay: Biochemical capsid assembly assay (fluorescence quenching)). Conditions: assembly started with NaCl, fluorescence read after 6 min, read-out: Assembly activity.
T1 construct: fused on or other part: A single cysteine added after residue 149, at position 150; It carries the BODIPY-FL maleimide label
T1 sequence (P03146 whole entry, the tested form may be a part): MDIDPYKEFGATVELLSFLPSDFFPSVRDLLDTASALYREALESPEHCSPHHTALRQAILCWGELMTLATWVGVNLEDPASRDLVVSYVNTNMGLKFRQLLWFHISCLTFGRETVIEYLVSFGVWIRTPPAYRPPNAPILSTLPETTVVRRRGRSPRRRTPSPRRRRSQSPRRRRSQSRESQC
Protocol: The screening for assembly effector activity was done based on a fluorescence quenching assay published by Zlotnick et al. (2007). The C-terminal truncated core protein containing 149 amino acids of the N-terminal assembly domain fused to a unique cysteine residue at position 150 and was expressed in E. coli using the pET expression system (Merck Chemicals, Darmstadt). Purification of core dimer protein was performed using a sequence of size exclusion chromatography steps. In brief, the cell pellet from 1 L BL21 (DE3) Rosetta2 culture expressing the coding sequence of core protein cloned NdeI/XhoI into expression plasmid pET21b was treated for 1 h on ice with a native lysis buffer (Qproteome Bacterial Protein Prep Kit; Qiagen, Hilden). After a centrifugation step the supernatant was precipitated during 2 h stirring on ice with 0.23 g/ml of solid ammonium sulfate. Following further centrifugation the resulting pellet was resolved in buffer A (100 mM Tris, pH 7.5; 100 mM NaCl; 2 mM DTT) and was subsequently loaded onto a buffer A equilibrated CaptoCore 700 column (GE HealthCare, Frankfurt). The column flow through containing the assembled HBV capsid was dialyzed against buffer N (50 mM NaHCO3 pH 9.6; 5 mM DTT) before urea was added to a final concentration of 3M to dissociate the capsid into core dimers for 1.5 h on ice. The protein solution was then loaded onto a 1L Sephacryl S300 column. After elution with buffer N core dimer containing fractions were identified by SDS-PAGE and subsequently pooled and dialyzed against 50 mM HEPES pH 7.5; 5 mM DTT. To improve the assembly capacity of the purified core dimers a second round of assembly and disassembly starting with the addition of 5 M NaCl and including the size exclusion chromatography steps described above was performed. From the last chromatography step core dimer containing fractions were pooled and stored in aliquots at concentrations between 1.5 to 2.0 mg/ml at −80° C.
Immediately before labelling the core protein was reduced by adding freshly prepared DTT in a final concentration of 20 mM. After 40 min incubation on ice storage buffer and DTT was removed using a Sephadex G-25 column (GE HealthCare, Frankfurt) and 50 mM HEPES, pH 7.5. For labelling 1.6 mg/ml core protein was incubated at 4° C. and darkness overnight with BODIPY-FL maleimide (Invitrogen, Karlsruhe) in a final concentration of 1 mM. After labelling the free dye was removed by an additional desalting step using a Sephadex G-25 column. Labelled core dimers were stored in aliquots at 4° C. In the dimeric state the fluorescence signal of the labelled core protein is high and is quenched during the assembly of the core dimers to high molecular capsid structures. The screening assay was performed in black 384 well microtiter plates in a total assay volume of 10 μl using 50 mM HEPES pH 7.5 and 1.0 to 2.0 μM labelled core protein. Each screening compound was added in 8 different concentrations using a 0.5 log-unit serial dilution starting at a final concentration of 100 μM, 31.6 μM or 10 μM, In any case the DMSO concentration over the entire microtiter plate was 0.5%. The assembly reaction was started by the injection of NaCl to a final concentration of […] which induces the assembly process to approximately 25% of the maximal quenched signal. 6 min after starting the reaction the fluorescence signal was measured using a Clariostar plate reader (BMG Labtech, Ortenberg) with an excitation of 477 nm and an emission of 525 nm. As 100% and 0% assembly control HEPES buffer containing 2.5 M and 0 M NaCl was used. Experiments were performed thrice in triplicates. EC50 values were calculated by non-linear regression analysis using the Graph Pad Prism 6 software (GraphPad Software, La Jolla, USA).

Compound | IC50
O=C(c1cc2c(F)c(F)ccc2[nH]1)N1CCc2nn3c(c2C1)C(=O)N(CCO)C1(CC3)CC1 [Example 120, 4′-(4,5-difluoro-1H-indole-2-carbonyl)-13′-(2-hydroxyethyl)-4′, 8′,9′,13′-tetraazaspiro[cyclopropane-1,12′-tricyclo[7.5.0.0^2,7]tetradecane]-1′,7′-dien-14′-one] | < 5 µM
O=C(c1cc2cc(F)c(F)cc2[nH]1)N1CCc2nn3c(c2C1)C(=O)N(CCO)C1(CC3)CC1 [Example 121, 4′-(5,6-difluoro-1H-indole-2-carbonyl)-13′-(2-hydroxyethyl)-4′, 8′,9′,13′-tetraazaspiro[cyclopropane-1,12′-tricyclo[7.5.0.0^2,7]tetradecane]-1′,7′-dien-14′-one] | < 5 µM
O=C(c1cc2cc(F)c(Cl)cc2[nH]1)N1CCc2nn3c(c2C1)C(=O)N(CCO)C1(CC3)CC1 [Example 122, 4′-(6-chloro-5-fluoro-1H-indole-2-carbonyl)-13′-(2-hydroxyethyl)-4′,8′,9′,13′-tetraazaspiro[cyclopropane-1,12′-tricyclo[7.5.0.0^2,7]tetradecane]-1′,7′-dien-14′-one] | < 5 µM
COCCN1C(=O)c2c3c(nn2CCC12CC2)CCN(C(=O)c1cc2ccccc2[nH]1)C3 [Example 123, 4′-(1H-indole-2-carbonyl)-13′-(2-methoxyethyl)-4′, 8′,9′,13′-tetraazaspiro[cyclopropane-1,12′-tricyclo[7.5.0.0^2,7]tetradecane]-1′,7′-dien-14′-one] | < 5 µM
CN(C)CCN1C(=O)c2c3c(nn2CCC12CC2)CCN(C(=O)c1cc2ccccc2[nH]1)C3 [Example 124, 13′-[2-(dimethylamino)ethyl]-4′-(1H-indole-2-carbonyl)-4′,8′,9′,13′-tetraazaspiro[cyclopropane-1,12′-tricyclo[7.5.0.0^2,7]tetradecane]-1′,7′-dien-14′-one] | 5 to 10 µM
CN1CCN(CCN2C(=O)c3c4c(nn3CCC23CC3)CCN(C(=O)c2cc3ccccc3[nH]2)C4)CC1 [Example 125, 4′-(1H-indole-2-carbonyl)-13′-[2-(4-methylpiperazin-1-yl)ethyl]-4′,8′,9′,13′-tetraazaspiro[cyclopropane-1,12′-tricyclo[7.5.0.0^2,7]tetradecane]-1′,7′-dien-14′-one] | < 5 µM
O=C(NC1(COC(F)F)CC1)c1onc2c1CN(C(=O)c1cc3ccccc3[nH]1)CC2 [Example 132, N-{1-[(difluoromethoxy)methyl]cyclopropyl}-5-(1H-indole-2-carbonyl)-4H,5H,6H,7H-[1,2]oxazolo[4,3-c]pyridine-3-carboxamide] | < 5 µM
O=C(NC1(COC(F)F)CC1)c1onc2c1CN(C(=O)c1cc3c(Cl)cccc3[nH]1)CC2 [Example 133, 5-(4-chloro-1H-indole-2-carbonyl)-N-{1-[(difluoromethoxy)methyl]cyclopropyl}-4H,5H,6H,7H-[1,2]oxazolo[4,3-c]pyridine-3-carboxamide] | < 5 µM
O=C(c1cc2ccccc2[nH]1)N1CCc2nn3c(c2C1)C(=O)N(CCN1CCOCC1)C1(CC3)CC1 [Example 134, 4′-(1H-indole-2-carbonyl)-13′-[2-(morpholin-4-yl)ethyl]-4′,8′,9′,13′-tetraazaspiro[cyclopropane-1,12′-tricyclo[7.5.0.0^2,7]tetradecane]-1′,7′-dien-14′-one] | < 5 µM
CN(C(=O)c1n[nH]c2c1CN(C(=O)c1cc3cc(F)c(Cl)cc3[nH]1)CC2)C1(c2ncc(C(=O)O)cn2)CC1 [Example 136, 2-{1-[N-methyl-5-(6-chloro-5-fluoro-1H-indole-2-carbonyl)-2H,4H,5H,6H,7H-pyrazolo[4,3-c]pyridine-3-amido]cyclopropyl}pyrimidine-5-carboxylic acid] | < 5 µM
O=C(O)c1ccc(C2(NC(=O)c3cnn4c3CN(C(=O)c3cc5ccccc5[nH]3)CC4)CC2)cc1 [Example 137, 4-{1-[5-(1H-indole-2-carbonyl)-4H,5H,6H,7H-pyrazolo[1,5-a]pyrazine-3-amido]cyclopropyl}benzoic acid] | < 5 µM
C[C@@H](NC(=O)c1ncn2c1CN(C(=O)c1cc3ccccc3[nH]1)CC2)C(F)(F)F [Example 138, 7-(1H-indole-2-carbonyl)-N-[(2R)-1,1,1-trifluoropropan-2-yl]-5H,6H,7H,8H-imidazo[1,5-a]pyrazine-1-carboxamide] | < 5 µM
CN1CCCn2nc3c(c2C1=O)CN(C(=O)c1cc2ccccc2[nH]1)CC3 [Example 139, 4-(1H-indole-2-carbonyl)-13-methyl-4,8,9,13-tetraazatricyclo[7.5.0.0^2,7]tetradeca-1,7-dien-14-one] | < 5 µM
O=C(c1cc2ccccc2[nH]1)N1CCc2nn3c(c2C1)C(=O)N(CCO)C1(CC1)C3 [Example 140, 4′-(2-hydroxyethyl)-12′-(1H-indole-2-carbonyl)-4′,7′,8′,12′-tetraazaspiro[cyclopropane-1,5′-tricyclo[7.4.0.0^2,7]tridecane]-1′,8′-dien-3′-one] | < 5 µM
O=C(NC1(COC(F)F)CC1)c1onc2c1CN(C(=O)c1cc3cc(F)c(F)cc3[nH]1)CC2 [Example 141, 5-(5,6-difluoro-1H-indole-2-carbonyl)-N-{1-[(difluoromethoxy)methyl]cyclopropyl}-4H,5H,6H,7H-[1,2]oxazolo[4,3-c]pyridine-3-carboxamide] | < 5 µM
O=C(NC1(COC(F)F)CC1)c1onc2c1CN(C(=O)c1cc3c(F)c(F)ccc3[nH]1)CC2 [Example 143, 5-(4,5-difluoro-1H-indole-2-carbonyl)-N-{1-[(difluoromethoxy)methyl]cyclopropyl}-4H,5H,6H,7H-[1,2]oxazolo[4,3-c]pyridine-3-carboxamide] | < 5 µM
O=C(NC1(COC(F)F)CC1)c1onc2c1CN(C(=O)c1cc3cc(F)c(Cl)cc3[nH]1)CC2 [Example 144, 5-(6-chloro-5-fluoro-1H-indole-2-carbonyl)-N-{1-[(difluoromethoxy)methyl]cyclopropyl}-4H,5H,6H,7H-[1,2]oxazolo[4,3-c]pyridine-3-carboxamide] | < 5 µM
CC1CCn2nc3c(c2C(=O)N1C)CN(C(=O)c1cc2ccccc2[nH]1)CC3 (stereo not drawn) [Example 145, 4-(1H-indole-2-carbonyl)-12,13-dimethyl-4,8,9,13-tetraazatricyclo[7.5.0.0^2,7]tetradeca-1,7-dien-14-one] | < 5 µM
O=C(c1cc2ccccc2[nH]1)N1CCc2nn3c(c2C1)C(=O)N(CCOC(F)(F)F)C1(CC3)CC1 [Example 146, 4′-(1H-indole-2-carbonyl)-13′-[2-(trifluoromethoxy)ethyl]-4′,8′,9′,13′-tetraazaspiro[cyclopropane-1,12′-tricyclo[7.5.0.0^2,7]tetradecane]-1′,7′-dien-14′-one] | < 5 µM
O=C(c1cc2ccccc2[nH]1)N1CCc2nn3c(c2C1)C(=O)N(CC(F)F)C1(CC3)CC1 [Example 147, 13′-(2,2-difluoroethyl)-4′-(1H-indole-2-carbonyl)-4′,8′,9′,13′-tetraazaspiro[cyclopropane-1,12′-tricyclo[7.5.0.0^2,7]tetradecane]-1′,7′-dien-14′-one] | < 5 µM
O=C(c1cc2ccccc2[nH]1)N1CCc2nn3c(c2C1)C(=O)N(CC(F)(F)F)C1(CC3)CC1 [Example 148, 4′-(1H-indole-2-carbonyl)-13′-(2,2,2-trifluoroethyl)-4′,8′,9′,13′-tetraazaspiro[cyclopropane-1,12′-tricyclo[7.5.0.0^2,7]tetradecane]-1′,7′-dien-14′-one] | < 5 µM
